Assay results published in patent US5834429A, “Small peptides which inhibit binding to T-4 receptors and act as immunogens” (priority 1993, dated 1998).

Experiments:
[1] = tested on: T4 antigen (gp120 receptor) on fresh rat hippocampal membranes; test: Displacement of specific 125I-gp120 binding to brain membranes; conditions: for potency compared with peptide T (in words): FIG. 3; for rank order of potencies in inhibiting receptor binding: four peptides
Procedure: HTLV-IIIb isolate of HIV was propaged in H9 cells, and the gp120 was isolated by immunoaffinity chromatography and preparative NaDodSO4 /PAGE. Purified gp120 was labeled with ^125 I by the chloramine-T method.
Fresh human, monkey, and rat hippocampus were quickly homogenized (POLYTRON, Brinkmann Instruments) in 100 vol of ice-cold 50 mM Hepes (pH 7.4). The membranes collected by centrifugation (15,000×g) were washed in the original buffer volume and were used fresh or stored at -70° C. Before use, brain membranes and highly purified T cells (ref. 16; gift of Larry Wahl) were preincubated for 15-30 min in phosphate-buffered saline (PBS). Membranes derived from 2 mg (initial wet weight) of brain (.chi.100 μg of protein) were incubated with 28,000 cpm of ^125 I-gp120 for 1 hr at 37° C. in 200 μl (final volume) of 50 mM Hepes containing 0.1% bovine serum albumin and the peptidase inhibitors bacitracin (0.005%), aprotinin (0.005%), leupeptin (0.001%), and chymostatin (0.001%). Incubations were rapidly vacuum-filtered and counted to determine the receptor-bound material.

[2] = tested on: HTLV-III virus (HIV); test: Blockade of viral infection of human T cells (reverse transcriptase activity); type: cell-based; conditions: FIG. 3; for rank order of potencies in inhibiting viral infectivity: four peptides
Procedure: Separation of T-Lymphocyte Subsets. Subsets of T cells were obtained by treatment of PERCOLL density-purified peripheral blood T cells with specific monoclonal antibodies (T4 or T8) at 10 μg/ml. The treated cells were then panned (21) on a plastic Petri dish that was coated with goat [F(ab')2 ] anti-mouse immunoglobulin (Sero Lab, Eastbury, Mass.) for 30 min at 4° C. The nonadherent cells were then removed, washed, and analyzed for reactivity by flow cytometry. The separated T4 and T8 cell populations have <5% contamination of other T-cell subsets. Cells were then cultured with phytohemagglutinin (1 μg/ml) for 72 hr and exposed to HIV as described below. Infected cells were phenotypically characterized when cytotoxicity assays were performed.
Virus Infection. The HTLV-III virus used for infection was isolated from an interleukin 2 (IL-2)-dependent cultured T-cell line established from fresh AIDS patient material and passaged into HuT 78, a permissive IL-2-independent cell line.

[3] = target: T4 viral receptors (Homo sapiens, UniProt P01730); test: Activity of cysteine-extended core peptide (test not specified)

Molecule | potency compared with peptide T (in words) [1] | rank order of potencies in inhibiting receptor binding [1] | rank order of potencies in inhibiting viral infectivity [2] | inhibition of gp120 binding to brain membranes (in words) [1] | concentration range at which 125I-gp120 binding is significantly inhibited ([1]; fresh rat hippocampal membranes, FIG. 2C) [nM] | blockade of viral infectivity (in words) ([2]; human T cells) | activity (in words) [3]
C[C@@H](N)C(=O)N[C@@H](CO)C(=O)N[C@H](C(=O)N[C@H](C(=O)N[C@H](C(=O)N[C@@H](CC(N)=O)C(=O)N[C@@H](Cc1ccc(O)cc1)C(=O)N[C@H](C(N)=O)[C@@H](C)O)[C@@H](C)O)[C@@H](C)O)[C@@H](C)O [D-[Ala]1-peptide T-amide] | somewhat greater potency | D-[Ala]1 -peptide T-amide>D-[Ala]1 -peptide T>peptide T>D-[Thr]8 -peptide T-amide | D-[Ala]1 -peptide T-amide>D-[Ala]1 -peptide T>peptide T>D-[Thr]8 -peptide T-amide | – | – | – | –
C[C@@H](N)C(=O)N[C@@H](CO)C(=O)N[C@H](C(=O)N[C@H](C(=O)N[C@H](C(=O)N[C@@H](CC(N)=O)C(=O)N[C@@H](Cc1ccc(O)cc1)C(=O)N[C@H](C(=O)O)[C@@H](C)O)[C@@H](C)O)[C@@H](C)O)[C@@H](C)O [D-[Ala]1-peptide T] | consistently more potent | D-[Ala]1 -peptide T-amide>D-[Ala]1 -peptide T>peptide T>D-[Thr]8 -peptide T-amide | D-[Ala]1 -peptide T-amide>D-[Ala]1 -peptide T>peptide T>D-[Thr]8 -peptide T-amide | – | – | – | –
C[C@H](N)C(=O)N[C@@H](CO)C(=O)N[C@H](C(=O)N[C@H](C(=O)N[C@H](C(=O)N[C@@H](CC(N)=O)C(=O)N[C@@H](Cc1ccc(O)cc1)C(=O)N[C@H](C(=O)O)[C@@H](C)O)[C@@H](C)O)[C@@H](C)O)[C@@H](C)O [peptide T] | – | D-[Ala]1 -peptide T-amide>D-[Ala]1 -peptide T>peptide T>D-[Thr]8 -peptide T-amide | D-[Ala]1 -peptide T-amide>D-[Ala]1 -peptide T>peptide T>D-[Thr]8 -peptide T-amide | inhibit binding of gp 120 to the brain membranes | ~0.1 | blocked | –
CYS-THR-THR-ASN-TYR-THR-CYS (CTTNYTC; printed: CYS-THR-THR-ASN-TYR-THR-CYS) | – | – | – | – | – | – | active
substance P [1-8]: irrelevant octapeptide substance P [1-8] (RPKPQQFF; Substance P; UniProt P20366 58-65, looked up, fragment) [reference compound] | – | – | – | not | – | – | –
